Experimental findings from publication PMC8565515, “Dasabuvir Inhibits Human Norovirus Infection in Human Intestinal Enteroids” (mSphere, 2021) are described below.

Data set [1] has as its system GII.4 HuNoV. Put plainly: GII.4 HuNoV infection of HIE monolayers, viral genome equivalents by RT-qPCR. It counts as cell-based, human norovirus. Particulars: for activity at 10 µM: Norovirus, 24 h, read-out: (%) HuNoV GEs. On the technique in general: In qPCR the cycle at which signal appears reflects the starting amount.
Data set [2] has as its system J2 HIE monolayers. Put plainly: Cytotoxicity by LDH assay in J2 HIE monolayers. Particulars: compound 10 μM, n = 1, LDH assay, J2 HIE monolayers infected with GII.4 HuNoV, 24 hpi, normalized to DMSO control.
Setting [3] is: compound 10 μM, n = 1, J2 HIE monolayers, GII.4 HuNoV, 24 hpi, normalized to DMSO control.

Where a name gives a salt, the structure may show the parent alone. Read-outs that look alike come from different tables or passages of the source.

For `CC[n+]1c(-c2ccccc2)c2cc(N)ccc2c2ccc(N)cc21` [Ethidium bromide], the activity at 10 µM in data set [1] (setting [3]) came out at 21.1%. Moreover, the “(%) Cytotoxicity” value in data set [2] is given as -1.16%.
On to `Cc1cc(C#N)cc(C)c1Oc1nc(Nc2ccc(C#N)cc2)nc(N)c1Br` [Etravirine], for which the activity at 10 µM in data set [1] (setting [3]) turned out to be 28.8%. The “(%) Cytotoxicity” value in data set [2] was determined as 24.52%.
With `NC(=O)c1nc(F)c[nH]c1=O` [Favipiravir], the activity at 10 µM in data set [1] (setting [3]) came to 81%. The “(%) Cytotoxicity” value in data set [2] is reported as -1.51%.
As for `O=S(=O)(CCC(F)=C(F)F)c1ncc(Cl)s1` [Fluensulfone], the “(%) HuNoV GEs” value in data set [1] (setting [3]) is on record as 63.19%. Also, the “(%) Cytotoxicity” value in data set [2] is recorded as -2.22%.
For `COc1ccc([C@H]2OC[C@H]3[C@@H]2CO[C@H]3c2ccc(O[C@@H]3O[C@H](CO)[C@@H](O)[C@H](O)[C@H]3O)c(OC)c2)cc1OC` [Forsythin] the same measures were 52.42% and 1.24%.
`CC1(C)[C@@H](O[C@H]2O[C@H](C(=O)O)[C@@H](O)[C@H](O)[C@H]2O[C@@H]2O[C@H](C(=O)O)[C@@H](O)[C@H](O)[C@H]2O)CC[C@]2(C)[C@H]3C(=O)C=C4[C@@H]5C[C@@](C)(C(=O)O)CC[C@]5(C)CC[C@@]4(C)[C@]3(C)CC[C@@H]12` [Glycyrrhizin]: in data set [1] (setting [3]), the activity at 10 µM is 103%. In addition, in data set [2], the “(%) Cytotoxicity” value came out at 4.28%.
As to `Nc1nc2c(ncn2[C@@H]2O[C@H](CO)[C@@H](O)[C@H]2O)c(=O)[nH]1` [Guanosine], the activity at 10 µM in data set [1] (setting [3]) came to 32.3%. Besides, the “(%) Cytotoxicity” value in data set [2] is given as 0.15%.
With `COc1ccnc(C[S+]([O-])c2nc3ccc(-n4cccc4)cc3[n-]2)c1C.[Na+]` (stereo not shown) [Ilaprazole sodium], the “(%) HuNoV GEs” value in data set [1] (setting [3]) came to 39.34%. Besides, the “(%) Cytotoxicity” value in data set [2] is 1.57%.
For `CC(C)=O.COC(=O)N[C@H](C(=O)N1CC2(CC2)C[C@H]1c1ncc(-c2ccc3c(c2)C(F)(F)c2cc(-c4ccc5nc([C@@H]6[C@H]7CC[C@H](C7)N6C(=O)[C@@H](NC(=O)OC)C(C)C)[nH]c5c4)ccc2-3)[nH]1)C(C)C` [Ledipasvir acetone] the same measures were 133.29% and 6.17%.
`CC(C)(C)C#Cc1cc(N(C(=O)[C@H]2CC[C@H](C)CC2)[C@H]2CC[C@H](O)CC2)c(C(=O)O)s1` [Lomibuvir]: the activity at 10 µM in data set [1] (setting [3]) amounted to 87.6%. Further, the “(%) Cytotoxicity” value in data set [2] is -1.75%.
For `CC(C)c1cc(Oc2c(Cl)cc(-n3nc(C#N)c(=O)[nH]c3=O)cc2Cl)n[nH]c1=O` [MGL3196] the same measures were 70.8% and -0.56%.
Take `CCOC(=O)c1c(C)n(C)c2ccc(O)cc12` [Mecarbinate]: in data set [1] (setting [3]), the “(%) HuNoV GEs” value came to 102.13%. Also, the “(%) Cytotoxicity” value in data set [2] is 0.93%.
On to `Cl.N=C(N=C(N)N)N1CCOCC1` [Moroxydine hydrochloride], for which, in data set [1] (setting [3]), the “(%) HuNoV GEs” value turned out to be 119.22%. Besides, the “(%) Cytotoxicity” value in data set [2] is on record as -1.11%.
As to `CCCCCCCCCC(=O)O[C@H]1CC[C@H]2[C@@H]3CCC4=CC(=O)CC[C@@H]4[C@H]3CC[C@]12C` [Nandrolone decanoate], in data set [1] (setting [3]), the activity at 10 µM came to 58.9%. The “(%) Cytotoxicity” value in data set [2] was 0.98%.
For `O=C1C[C@@H](c2ccc(O)cc2)Oc2cc(O)cc(O)c21` [Naringenin] the same measures were 165% and 1.14%.
For `C[C@@H]1O[C@@H](O[C@H]2[C@H](Oc3cc(O)c4c(c3)O[C@H](c3ccc(O)cc3)CC4=O)O[C@H](CO)[C@@H](O)[C@@H]2O)[C@H](O)[C@H](O)[C@H]1O` [Naringin] the same measures were 101% and 5.67%.
Regarding `Cc1ccnc2c1NC(=O)c1cccnc1N2C1CC1` [Nevirapine], the activity at 10 µM in data set [1] (setting [3]) was found to be 56.6%. Also, the “(%) Cytotoxicity” value in data set [2] is listed as 0.72%.
With `CC1(C)CC[C@]2(C(=O)O)CC[C@]3(C)C(=CC[C@@H]4[C@@]5(C)CC[C@H](O)C(C)(C)[C@@H]5CC[C@]43C)[C@@H]2C1` [Oleanolic Acid], the activity at 10 µM in data set [1] (setting [3]) amounted to 82%. In data set [2], the “(%) Cytotoxicity” value turned out to be 4.14%.
For `CC1(C)CC[C@]2(C(=O)O)CC[C@]3(C)C(=CC[C@@H]4[C@@]5(C)CCC(=O)C(C)(C)[C@@H]5CC[C@]43C)[C@@H]2C1` [Oleanonic Acid] the same measures were 11.9% and -3.05%.
On to `O=C(Nc1ccc(O)cc1)c1ccccc1O` [Osalmid], for which the activity at 10 µM in data set [1] (setting [3]) is 52.1%. In data set [2], the “(%) Cytotoxicity” value was 3.16%.
Consider `O=C1CCC[C@@H]2[C@H]3CCC[N+]4([O-])CCC[C@@H](CN12)[C@@H]34` (stereo partly shown) [Oxymatrine], for which the activity at 10 µM in data set [1] (setting [3]) amounted to 56.1%. For the same molecule, the “(%) Cytotoxicity” value in data set [2] came to 2.33%.
For `Cc1cnc(C(=O)N[C@H]2CCCCC/C=C\[C@@H]3C[C@@]3(C(=O)NS(=O)(=O)C3CC3)NC(=O)[C@@H]3C[C@@H](Oc4nc5ccccc5c5ccccc45)CN3C2=O)cn1` [Paritaprevir] the same measures were 45% and -0.33%.
On to `C[C@H]1CC[C@@]2(O)C(C)(C)[C@@H]3CC[C@@]2(C)[C@H]1C3` [Patchouli alcohol], for which the “(%) HuNoV GEs” value in data set [1] (setting [3]) came out at 83.87%. Also, in data set [2], the “(%) Cytotoxicity” value worked out at 1.24%.
With `Cc1nc(N(C)C(=O)Cc2ccc(-c3ccccn3)cc2)sc1S(N)(=O)=O` [Pritelivir], in data set [1] (setting [3]), the activity at 10 µM came to 64.5%. In addition, the “(%) Cytotoxicity” value in data set [2] is listed as -1.63%.
For `Cc1nnc(C(=O)NC(C)(C)c2nc(C(=O)NCc3ccc(F)cc3)c(O)c(=O)n2C)o1` [Raltegravir] the same measures were 49.3% and 1.45%.
For `Cc1cc(/C=C/C#N)cc(C)c1Nc1ccnc(Nc2ccc(C#N)cc2)n1` [Rilpivirine] the same measures were 117% and 0.20%.
For `CC(N)C12CC3CC(CC(C3)C1)C2` (stereo not shown) [Rimantadine hydrochloride] the same measures were 40.9% and 2.41%.
Take `COc1ccc(C2CNC(=O)C2)cc1OC1CCCC1` (stereo not shown) [Rolipram]: the activity at 10 µM in data set [1] (setting [3]) turned out to be 78.7%. In data set [2], the “(%) Cytotoxicity” value was -0.46%.
For `CC(C)OC(=O)[C@H](C)N[P@](=O)(OC[C@H]1O[C@@H](n2ccc(=O)[nH]c2=O)[C@](C)(F)[C@@H]1O)Oc1ccccc1` [Sofosbuvir] the same measures were 22.6% and 0.74%.
On to `CN[C@@H]1[C@H](O)[C@H](NC)[C@H]2O[C@@]3(O)C(=O)C[C@@H](C)O[C@H]3O[C@@H]2[C@H]1O.Cl.Cl` [Spectinomycin dihydrochloride], for which the “(%) HuNoV GEs” value in data set [1] (setting [3]) amounted to 109.17%. In addition, the “(%) Cytotoxicity” value in data set [2] is -1.44%.
With `CC(C)OC(=O)[C@H](C)N[P@](=O)(CO[C@H](C)Cn1cnc2c(N)ncnc21)Oc1ccccc1` [Tenofovir alafenamide], the activity at 10 µM in data set [1] worked out at 55.2%. Moreover, the “(%) Cytotoxicity” value in data set [2] is -0.20%.
With `CN(C)[C@@H]1C(O)=C(C(N)=O)C(=O)[C@@]2(O)C(O)=C3C(=O)c4c(O)cccc4[C@@](C)(O)[C@H]3C[C@@H]12` [Tetracycline], the activity at 10 µM in data set [1] (setting [3]) is 108%. Also, the “(%) Cytotoxicity” value in data set [2] was 0.09%.
Take `O=C(Nc1ncc([N+](=O)[O-])s1)c1ccccc1O` [Tizoxanide]: in data set [1] (setting [3]), the activity at 10 µM stood at 40%. Further, the “(%) Cytotoxicity” value in data set [2] was found to be 2.28%.
For `CC(C)OC(=O)C1=CN(C(=O)c2ccc(F)c(F)c2)CC(C)(C)c2c1[nH]c1ccccc21` [Turofexorate Isopropyl] the same measures were 31.9% and 0.86%.
For `COC[C@H]1C[C@@H](c2ncc(-c3ccc4c(c3)COc3cc5c(ccc6nc([C@@H]7CC[C@H](C)N7C(=O)[C@@H](NC(=O)OC)C(C)C)[nH]c65)cc3-4)[nH]2)N(C(=O)[C@H](NC(=O)OC)c2ccccc2)C1` [Velpatasvir] the same measures were 59.8% and 1.45%.
Turning to `O=C(/C=C\n1cnc(-c2cc(C(F)(F)F)cc(C(F)(F)F)c2)n1)NNc1ccccn1` [Verdinexor], in data set [1] (setting [3]), the activity at 10 µM amounted to 142%. Moreover, the “(%) Cytotoxicity” value in data set [2] was determined as 10.81%.
For `COc1cc(O)c(CC=C(C)C)c(O)c1C(=O)/C=C/c1ccc(O)cc1` [Xanthohumol] the same measures were 67.3% and 2.40%.
Regarding Vitamin E, the “(%) HuNoV GEs” value in data set [1] (setting [3]) amounted to 125.47%. For the same molecule, in data set [2], the “(%) Cytotoxicity” value is recorded as -0.33%.
